Data from ChEMBL document CHEMBL4414564, “Viola "inconspicua" No More: An Analysis of Antibacterial Cyclotides” (2019).
Values after ≈ are worked out from the molar mass of the structure shown. Bridge positions count the residues as written; N and C are the ends. Square brackets hold non-standard residues; d marks the D form. Peptide text beside a SMILES is read from it. ξ: configuration not given here. Thr(3ξ) = CC(O)[C@H](N)C(=O)O

Columns and labels:
Format in all cases: functional
Klebsiella pneumoniae = experiment: Antibacterial activity against rifampin and streptomycin resistant Klebsiella pneumoniae VK148 assessed as reduction in bacterial cell viability incubated for 4 hrs by resazurin assay; conditions: VK148, 4 h
Escherichia coli [1] = experiment: Antibacterial activity against Escherichia coli ATCC 25922 assessed as reduction in bacterial cell viability incubated for 4 hrs by resazurin assay; conditions: ATCC 25922, 4 h
Escherichia coli [2] = experiment: Antibacterial activity against Escherichia coli ATCC 25922 assessed as reduction in […] at 60 uM incubated for 4 hrs by resazurin assay relative to control; parameters: scale not given: the % may be the effect or the level left

## CC[C@H](C)[C@@H]1NC(=O)[C@H](C)NC(=O)[C@H](CO)NC(=O)[C@H](CO)NC(=O)[C@H]([C@@H](C)CC)NC(=O)[C@@H]2CSSC[C@@H]3NC(=O)[C@H](C(C)C)NC(=O)[C@H](CCCCN)NC(=O)[C@@H](CO)NC(=O)[C@H](CCCCN)NC(=O)[C@H]4CSSC[C@H](NC(=O)[C@H](CO)NC(=O)[C@H](CCC(=O)O)NC(=O)CNC(=O)[C@H](CSSC[C@H](NC(=O)CNC1=O)C(=O)N[C@@H](CO)C(=O)N4)NC(=O)[C@@H]1CCCN1C(=O)[C@H]([C@@H](C)CC)NC(=O)CNC(=O)[C@H](CC(N)=O)NC(=O)[C@@H](CCCNC(=N)N)NC(=O)[C@H](Cc1ccc(O)cc1)NC3=O)C(=O)N[C@@H](C(C)C)C(=O)N[C@@H](Cc1c[nH]c3ccccc13)C(=O)N[C@@H]([C@@H](C)CC)C(=O)N1CCC[C@H]1C(=O)N2
Klebsiella pneumoniae
  MIC: < 12.5 µM
Escherichia coli [1]
  MIC: 5 µM (≈ 15.7 µg/mL)

## CC[C@H](C)[C@@H]1NC(=O)[C@H](CO)NC(=O)[C@H](C)NC(=O)[C@H](CO)NC(=O)[C@H](Cc2ccc(O)cc2)NC(=O)[C@@H]2CSSC[C@@H]3NC(=O)[C@H](C(C)C)NC(=O)[C@H](CCCCN)NC(=O)[C@H](Cc4ccc(O)cc4)NC(=O)[C@H](CCCCN)NC(=O)[C@H](CO)NC(=O)[C@@H]4CSSC[C@H](NC(=O)[C@H](C(C)O)NC(=O)[C@H](CCC(=O)O)NC(=O)CNC(=O)[C@H](CSSC[C@H](NC(=O)CNC1=O)C(=O)N[C@@H](CO)C(=O)N4)NC(=O)[C@H](C)NC(=O)CNC(=O)[C@@H]1CCCN1C(=O)[C@H](CC(N)=O)NC(=O)CNC(=O)[C@H](CC(N)=O)NC(=O)[C@H](CC(C)C)NC(=O)[C@H]([C@@H](C)O)NC3=O)C(=O)N[C@@H]([C@@H](C)CC)C(=O)N[C@@H](Cc1c[nH]c3ccccc13)C(=O)NCC(=O)N[C@@H](CCCCN)C(=O)N2 (stereo partly drawn) (cyclo(ACGE[Thr(3ξ)]CIWGKCYSASIGCSCSKYKVCTLNGNPG); disulfide 2-18, 6-20, 11-26)
Escherichia coli [2]
  Activity: 50%
